The values below come from patent US9902709B2, “Polysubstituted pyridine compound, preparation method, use and pharmaceutical composition” (PEKING UNIVERSITY FOUNDER GROUP CO., LTD., priority 2014, dated 2018).

The structures appear in SMILES notation.

In experiment [1] the test system is human colon cancer HCT-116 transplantation. Kind of experiment: Effect on tumor weight of human colon cancer HCT-116 transplantation nude mice (Comparative Experiment Example 2). To be noted: QD × 17 day, sorafenib as p-toluenesulfonate, FD-1210005 free form. Type of experiment: in vivo. From the text: Comparative Experiment Example 2
Under aseptic conditions, the well grown human HCT-116 cell suspension in logarithmic growth phase was used to inoculate nude mouse at axillary cavity of right forelimb subcutaneously via an injector. The tumor growth state was observed regularly until the tumor grew to a volume of 100˜300 mm^3.
48 Tumor-bearing mice with a tumor volume of 100˜300 mm^3 were selected and divided into 6 groups, which were 1 solvent control group, 3 positive control groups, and 2 test sample groups. Both the positive control group and the test sample group were administered intragastrically once a day; the solvent control group was administered with 12.5% ethanol & 12.5% water solution of polyoxyethylene castor oil once a day; intragastrical volume was 10 mL/kg.
(§1) In the period of administration, tumor diameter was measured twice every week, tumor volume was calculated, and animal body weight was recorded. Animal state was observed when administered, and abnormal state was recorded.
Animal was sacrificed with CO2, and tumor mass was peeled off, weighed, and photographed. After photographed, each tumor mass was cut into two parts, wherein one was stored in 4% paraformaldehyde, and the other was packaged into a freezing tube, and frozen in liquid nitrogen. Animal was subjected to gross anatomy, and organs were observed by eyes to find if they were normal or not.
(§2) Observation Indexes: Tumor weight inhibiting rate (IR)=(WC−WT)/WC
wherein WC and WT represented the average tumor weight of solvent control group and the average tumor weight of drug administration group, respectively.
Experimental data was subjected to calculation and relevant statistic processing by Microsoft Office Excel 2003 software. Unless otherwise specified, data was represented as Mean±Standard Error (Mean±S.E.), and t-test is used in the comparison between two groups.

For experiment [2], the system named is human renal cancer 786-O transplantation. Kind of experiment: Effect on tumor weight of human renal cancer 786-O transplantation nude mice (Comparative Experimental Example 1). Type of experiment: in vivo. The note with it: QD × 14 days, sorafenib as p-toluenesulfonate, FD-1210005 free form.
Excerpt: Comparative Experimental Example 1
The well grown 786-O solid tumor was cut into a mass of an average volume of about 1 mm^3 under aseptic conditions, and was used to inoculate nude mouse at axillary cavity of right forelimb subcutaneously via a trocar. The tumor growth state was observed regularly until the tumor grew into a volume of 250˜550 mm^3.
Animals with tumors of a too large or too small volume and an irregular shape were discarded. Tumor-bearing mice with a tumor volume of 250˜550 mm^3 in a good state were selected, 48 mice in total, and were divided into 6 groups, which were 1 solvent control group, 3 positive control groups, and 2 test sample groups. Both the positive control group and the test sample group were administered intragastrically once a day; the solvent control group was administered with 12.5% ethanol & 12.5% water solution of polyoxyethylene castor oil once a day; intragastrical volume was 10 mL/kg.
as §1
Animal was sacrificed with CO2, and tumor was peeled off, weighed, and photographed. Animal was subjected to gross anatomy, and organs were observed by eyes to find if they were normal or not.
as §2
Wherein WC and WT represented the average tumor weight of solvent control group and the average tumor weight of drug administration group, respectively.
Experimental data was subjected to calculation and relevant statistic processing by Microsoft Office Excel 2003 software. Unless otherwise specified, data was represented as Mean±Standard Error (Mean±S.E), and t-test is used in the comparison between two groups.

For the molecule `CNC(=O)c1cc(Oc2ccc(NC(=O)Nc3ccc(Cl)c(C(F)(F)F)c3)cc2)ccn1` [Comparative example 1, Sorafenib, reference compound], the “Tumor weight Mean ± S.E” value in experiment [1] (20 mg/kg Ig) was 0.5628 ± 0.0617 g; in experiment [1] (60 mg/kg Ig), 0.4409 ± 0.0857 g; in experiment [2] (20 mg/kg po), 0.5239 ± 0.1038 g; in experiment [2] (60 mg/kg po) it was 0.4407 ± 0.0581 g. In addition, the Tumor-inhibiting rate in experiment [1] (20 mg/kg Ig) came to 43.28%; in experiment [1] (60 mg/kg Ig) it was 55.57%; in experiment [2] (20 mg/kg po) it was 44.01%; in experiment [2] (60 mg/kg po) it was 52.89%.
